According to publication PMC9936582, “Sulfamate Acetamides as Self-Immolative Electrophiles for Covalent Ligand-Directed Release Chemistry” (Journal of the American Chemical Society, 2023):

Tested on: Mino cells
Test: Competitive pull-down proteomics with ibrutinib alkyne probe in Mino cells
Format: cell-based, human
Conditions: 1 µM compound 1 h
Description: (10 μM). This was followed by a reaction with biotin-azide using CuAAC, enrichment of the labeled proteins, and their quantification by tryptic digestion and LC/MS/MS analysis.
The samples were then precipitated with methanol: chloroform (1 mL of methanol, 250 μL of chloroform, and 750 μL of water), washed with 1 mL of methanol, and air-dried. The samples were solubilized and bound to streptavidin agarose beads in PBS for 3 h at 25 °C. The beads were washed, centrifuged, and resuspended in Tris 50 mM pH 8 and transferred to a clean Eppendorf tube. After this, the bound proteins were eluted by boiling with 5% SDS then reduced with DTT, alkylated with iodoacetamide, and digested with trypsin. The samples were run on LC/MS/MS. The detailed procedure is available in the Supplementary Information. The mass spectrometry proteomics data have been deposited to the ProteomeXchange Consortium via the PRIDE[67] partner repository with the dataset identifiers PXD038301 and PXD038375.
400 µL of 0.1% IGEPAL/PBS were added, and the beads were washed 3 times with 0.1% IGEPAL/PBS, 3 times PBS and 3 times water. The peptides were eluted by incubation with 200 µL of 50% acetonitrile + 0.1% TFA for 5 min, followed by two more portions of 100 µL of 50% acetonitrile + 0.1% TFA. The samples were dried by speedvac, and further purified using Oasis desalting columns (Waters), after which they were dried and run on the instrument.
Pull-down samples preparation […]
incubation with 10 μM “probe 4” for another hour. The samples were prepared in quadruplicates. The cells were washed with cold PBS, from the flasks and frozen. Then, each sample was lysed in 200 μL of […]
The protein in the supernatant was quantified using BCA. For each sample, 250 μL of 1.7 mg/mL was prepared. At this point, 5 μL of 5 mM biotin azide and 9 μL of 100 mM CuSO4/THPTA complex were added. The click reaction was initiated by the addition of 7.5 μL of 150 mM sodium ascorbate, and the samples are incubated at room temperature for 1 h. The samples were then precipitated with methanol/chloroform (1 mL methanol, 250 μL chloroform, 750 μL water), washed with 1 mL of methanol, and air-dried. […]
and heated to 95 °C for 5 min. The samples were then diluted to 1.5 mL with PBS, and 50 μL of streptavidin agarose beads, prewashed with 0.2% SDS in PBS, was added, followed by 3 h incubation at room temperature. Following the incubation, the beads were centrifuged at 2000g for 2 min and washed four times with the following buffers (4 mL in each wash): 2% SDS; 0.1% sodium deoxycholate, 1% Triton X-100, 0.5 M NaCl, 1 mM EDTA, 50 mM HEPES pH = 7.5; 0.25 M NaCl, 0.5% IGEPAL, 0.5% sodium deoxycholate, 1 mM EDTA, 10 mM Tris pH = 8.1; 50 mM Tris pH = 7.4, 50 mM NaCl. […]
with heating to 95 °C for 6 min and occasional vortexing. Finally, the beads were spun down (2 min 2000g) and 80 μL of supernatant was removed to separate tubes. […]
had cooled, 4 μL of iodoacetamide (0.2 M) were added, and the samples were incubated in the dark for 40 min at room temperature. […]
samples were diluted 6-fold with 90% methanol + 50 mM ammonium bicarbonate. The samples were then […]
loaded on S-trap micro columns (Protify), and the columns were washed three times with 150 μL of 90% methanol + 50 mM ammonium bicarbonate. Then, 20 μL of 0.05 μg/μL of trypsin in 50 mM ammonium bicarbonate was added to the columns and the samples were incubated at 47 °C for 90 min. Then, 40 μL of 50 mM ammonium bicarbonate was added, followed by centrifugation and addition of 1 μL of 0.5 μg/μL trypsin to the eluate, which was incubated at 37 °C overnight. The column itself was then eluted using 40 μL of 0.2% formic acid and 40 μL 0.2% formic acid in 50% acetonitrile into a separate tube, which was kept at 4 °C. The two eluates were then combined and evaporated. The samples were further desalted using […]

## Nc1ncnc2c1c(-c1ccc(Oc3ccccc3)cc1)nn2[C@@H]1CCCN(C(=O)COS(=O)(=O)NCc2ccccc2)C1 [3d]
4F2_HUMAN
  Log2(Fold Change): -0.3468
AATM_HUMAN
  Log2(Fold Change): 1.62
ACSF3_HUMAN
  Log2(Fold Change): 0.1421
AHNK_HUMAN
  Log2(Fold Change): 2.176
ALG1_HUMAN
  Log2(Fold Change): -0.2223
ANXA1_HUMAN
  Log2(Fold Change): 2.107
APEX1_HUMAN
  Log2(Fold Change): 0.5549
ARP3_HUMAN;ARP3B_HUMAN;ARP3C_HUMAN
  Log2(Fold Change): 0.3683
AT1A1_HUMAN;AT1A2_HUMAN;AT1A4_HUMAN;ATP4A_HUMAN;AT12A_HUMAN
  Log2(Fold Change): 0.9797
ATP5H_HUMAN
  Log2(Fold Change): 0.3377
ATPK_HUMAN
  Log2(Fold Change): 0.2949
ATPO_HUMAN
  Log2(Fold Change): -0.283
ATX10_HUMAN
  Log2(Fold Change): 0.3503
BST2_HUMAN
  Log2(Fold Change): 0.9798
BZW1_HUMAN
  Log2(Fold Change): 0.5267
C1TM_HUMAN
  Log2(Fold Change): -0.1466
CALL5_HUMAN
  Log2(Fold Change): -0.1469
CD20_HUMAN
  Log2(Fold Change): -0.02247
CD38_HUMAN
  Log2(Fold Change): 0.01573
CLCA_HUMAN
  Log2(Fold Change): -0.02966
CLH1_HUMAN;CLH2_HUMAN
  Log2(Fold Change): 2.15
COX2_HUMAN
  Log2(Fold Change): -0.2094
CRERF_HUMAN
  Log2(Fold Change): -0.7334
DD19B_HUMAN;DD19A_HUMAN
  Log2(Fold Change): -0.05233
DDX3X_HUMAN;DDX3Y_HUMAN;DDX4_HUMAN
  Log2(Fold Change): 1.382
DNJC7_HUMAN
  Log2(Fold Change): 0.6525
DSC1_HUMAN
  Log2(Fold Change): -0.7969
EF1B_HUMAN
  Log2(Fold Change): -0.6176
EPIPL_HUMAN
  Log2(Fold Change): 0.9511
FPPS_HUMAN
  Log2(Fold Change): -0.6242
GCR_HUMAN
  Log2(Fold Change): 0.4122
GLYM_HUMAN;GLYC_HUMAN
  Log2(Fold Change): 1.206
GSDMA_HUMAN
  Log2(Fold Change): 0.09253
HMCS1_HUMAN
  Log2(Fold Change): 0.6183
HXK2_HUMAN;HXK3_HUMAN
  Log2(Fold Change): 0.4444
IF4A1_HUMAN
  Log2(Fold Change): 0.3836
IF4A3_HUMAN
  Log2(Fold Change): 0.3127
IF4H_HUMAN
  Log2(Fold Change): 0.66
IGLL5_HUMAN;IGL1_HUMAN;IGLC1_HUMAN
  Log2(Fold Change): -2.924
LAPM5_HUMAN
  Log2(Fold Change): 0.7164
LAT1_HUMAN
  Log2(Fold Change): -0.2987
LMNA_HUMAN
  Log2(Fold Change): 1.21
MATR3_HUMAN
  Log2(Fold Change): 1.3535
MBB1A_HUMAN
  Log2(Fold Change): 0.0529
MCCA_HUMAN
  Log2(Fold Change): -0.3018
MIC19_HUMAN
  Log2(Fold Change): 0.1905
MP2K7_HUMAN
  Log2(Fold Change): 1.5282
NCEH1_HUMAN
  Log2(Fold Change): 1.226
NT5D1_HUMAN
  Log2(Fold Change): 2.611
NUCL_HUMAN
  Log2(Fold Change): 0.5701
OTUB1_HUMAN
  Log2(Fold Change): 0.2048
P121C_HUMAN;P121A_HUMAN
  Log2(Fold Change): 0.4168
PARK7_HUMAN
  Log2(Fold Change): 1.57
PCKGM_HUMAN
  Log2(Fold Change): 0.1766
PEBP1_HUMAN
  Log2(Fold Change): -0.8247
PEPL_HUMAN
  Log2(Fold Change): 0.8796
PFKAL_HUMAN
  Log2(Fold Change): -0.4948
PGK1_HUMAN;PGK2_HUMAN
  Log2(Fold Change): 0.5127
PIP_HUMAN
  Log2(Fold Change): 0.8481
PLAK_HUMAN;CTNB1_HUMAN
  Log2(Fold Change): -0.4311
POF1B_HUMAN
  Log2(Fold Change): 0.5955
PSA3_HUMAN
  Log2(Fold Change): 0.515
PSB8_HUMAN
  Log2(Fold Change): 0.8443
RAB1A_HUMAN;RAB1B_HUMAN;RAB1C_HUMAN
  Log2(Fold Change): 0.5794
RANG_HUMAN;IPKB_HUMAN
  Log2(Fold Change): -0.3375
RAP1B_HUMAN;RAP1A_HUMAN;RP1BL_HUMAN;RAB3D_HUMAN
  Log2(Fold Change): 0.1236
RFTN1_HUMAN
  Log2(Fold Change): 0.055
RL13A_HUMAN;R13P3_HUMAN
  Log2(Fold Change): 0.2889
RL18_HUMAN
  Log2(Fold Change): 0.278
RLA1_HUMAN
  Log2(Fold Change): 1.604
RN3P2_HUMAN
  Log2(Fold Change): -0.7545
RS28_HUMAN
  Log2(Fold Change): 1.706
RTN4_HUMAN
  Log2(Fold Change): -0.003108
RUVB2_HUMAN
  Log2(Fold Change): 0.8199
S38A1_HUMAN
  Log2(Fold Change): 0.5709
S61A1_HUMAN;S61A2_HUMAN
  Log2(Fold Change): 0.03923
SAE2_HUMAN
  Log2(Fold Change): 0.8525
SATT_HUMAN
  Log2(Fold Change): -0.2942
SCRB1_HUMAN
  Log2(Fold Change): 0.8748
SIAT1_HUMAN
  Log2(Fold Change): 0.1522
SO4A1_HUMAN
  Log2(Fold Change): 1.533
SPB4_HUMAN
  Log2(Fold Change): 2.369
SPB12_HUMAN
  Log2(Fold Change): -0.3346
SSDH_HUMAN
  Log2(Fold Change): 1.965
SUCB1_HUMAN
  Log2(Fold Change): 0.8691
TAP1_HUMAN
  Log2(Fold Change): -1.533
TAP2_HUMAN;ABCB8_HUMAN;ABCBA_HUMAN
  Log2(Fold Change): 0.8469
TBB2B_HUMAN;TBB2A_HUMAN
  Log2(Fold Change): -0.1459
TSN_HUMAN
  Log2(Fold Change): -0.1715
TX264_HUMAN
  Log2(Fold Change): 0.3926
UB2V2_HUMAN;UB2V1_HUMAN
  Log2(Fold Change): 1.306
UBP5_HUMAN
  Log2(Fold Change): -0.01896
UBP14_HUMAN
  Log2(Fold Change): 1.116
URP2_HUMAN
  Log2(Fold Change): 0.2486
USMG5_HUMAN
  Log2(Fold Change): 0.3682
VDAC1_HUMAN
  Log2(Fold Change): 0.3637
VEZA_HUMAN
  Log2(Fold Change): -0.126
XPO2_HUMAN
  Log2(Fold Change): 0.1341
XPO5_HUMAN
  Log2(Fold Change): 0.1456
ZDHC8_HUMAN
  Log2(Fold Change): -1.527
